From paper PMC8796707 (ACS chemical biology, 2020)
Like-named read-outs stand apart in the source and are kept apart here.

How the values were obtained:
FRB-HT/dK-FKBP = assay: Rapamycin chemical inducer of dimerization; type: biochemical; details: 100 nM dK fusion, 200 nM HT fusion, 250 nM rapamycin, 10 nM DAPA
dK-FRB/FKBP-HT = assay: Rapamycin chemical inducer of dimerization; type: biochemical; details: 100 nM dK fusion, 200 nM HT fusion, 250 nM rapamycin, 10 nM DAPA
dK (dL5(E52K)) = type: binding
[1] = system: HaloTag (HT) protein fusion; assay: Binding to purified HaloTag protein fusion, denaturing SDS-PAGE
[2] = system: HEK293 cells expressing dK-TM coplated with HT-TM-mCer3 cells; details: 10 nM DAPA dye
[3] = system: HEK293 cells expressing HT-TM-mCer3 (HaloTag); type: cell-based; details: 500 nM dye, washed 6×, then 1 μM dL5**
[4] = system: HEK293 cells expressing NLS-dL5**; assay: Cell permeability testing: labeling of nuclear localized FAP; type: cell-based; details: flow cytometry, 100 nM dye, normalized to MG-nBu
[5] = system: HEK293 cells expressing dL5**-TM coplated with HT-TM-mCer3 cells
dL5** = assay: Binding kinetics and affinity of dye to purified FAP; details: SD, N = 4

Sequence of FRB-HT/dK-FKBP (P42345 2012-2144 limits assumed): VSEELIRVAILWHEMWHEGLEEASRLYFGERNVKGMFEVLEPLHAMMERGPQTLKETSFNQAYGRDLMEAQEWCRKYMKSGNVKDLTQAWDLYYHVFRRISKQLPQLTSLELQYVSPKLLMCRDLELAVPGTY
Sequence of FRB-HT/dK-FKBP (P62942 2-108 limits assumed, further chain): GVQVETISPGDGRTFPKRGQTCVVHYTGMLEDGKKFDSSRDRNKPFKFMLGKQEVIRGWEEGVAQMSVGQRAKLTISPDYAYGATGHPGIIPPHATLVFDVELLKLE
Sequence of dK-FRB/FKBP-HT (P42345 2021-2113 limits assumed): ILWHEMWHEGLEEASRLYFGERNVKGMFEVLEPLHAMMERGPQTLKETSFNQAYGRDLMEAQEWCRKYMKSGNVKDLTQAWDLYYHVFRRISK
Sequence of dK-FRB/FKBP-HT (P62942 2-108 limits assumed, further chain): as the sequence (P62942 2-108 limits assumed, further chain) above

## MG-PEG3500-HexCl [DAPA]
FRB-HT/dK-FKBP
  increase in FAP–DAPA signal for rapamycin induced dimerization: 50%
dK-FRB/FKBP-HT
  increase in FAP–DAPA signal for rapamycin induced dimerization: 100%
dK (dL5(E52K)); SD, N = 4
  off rate, koff, dK: 53 ± 2 ×10^−4 s^−1
  on rate, kon, dK: 0.39 ± 0.03 ×10^6 M^−1 s^−1
dK (dL5(E52K)); dK versus dL5**
  difference in FAP/DAPA KD between dL5** and dK: ~ 500 fold
dK (dL5(E52K)); read-out: dissociation constant, KD, dK, KD = koff/kon, SD, N = 4
  Kd: 13.7 ± 0.5 nM
[1]
  binding to purified HaloTag protein fusion: irreversibly bind
[2]
  signal increase at the contact site versus the noncontact site: 40 fold
[3]
  labeling of HaloTag expressing cells: specifically labeled mCer3 positive cells
[4]
  NLS-dL5** labeling signal relative to MG-nBu signal: 5%
[5]; 100 nM DAPA dye
  ratio between contact and noncontact signal: 1.9
[5]; DAPA dye between 0.5 nM and 10 nM
  ratio between contact and noncontact signal: > 3.8
dL5**
  off rate, koff, dL5**: 1.23 ± 0.06 ×10^−4 s^−1
  on rate, kon, dL5**: 3.2 ± 0.2 ×10^6 M^−1 s^−1
